Results as given in patent US20100119599A1 (ARCHER PHARMACEUTICALS, INC., priority 2006, published 2010).

What was measured:
Aβ1-40 = assay: Measurement of Aβ1-40 in culture medium of 7W WT APP751 CHO cells by ELISA; type: cell-based, Chinese hamster; conditions: for activity at 5 µM: Cricetulus griseus, Table 1, 5 μM test compound, CHO cells stably transfected with human APP751, culture medium, ELISA, control DMSO, 0 = no detectable amount; for Aβ1-40 (% of control): CHO cells that overexpress APP751, zero = below the detection limit of the assay
Aβ1-42 = assay: Measurement of Aβ1-42 in culture medium of 7W WT APP751 CHO cells by ELISA; type: cell-based, Chinese hamster; conditions: for activity at 5 µM: Cricetulus griseus, Table 1, 5 μM test compound, CHO cells stably transfected with human APP751, culture medium, ELISA, control DMSO, 0 = no detectable amount, read-out: Aβ1-42 (% of control); for Aβ1-42 (% of control): CHO cells that overexpress APP751, zero = below the detection limit of the assay
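Note: 5 µM test compound but RI-coded compounds at 10 µM for 24 hours.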

## CC1=C(C(=O)OCCc2ccccc2)C(c2ccc(C)o2)C2=C(CC(C)(C)CC2=O)N1 (stereo not shown) [ST052398, 2-phenylethyl 2,7,7-trimethyl-4-(5-methyl(2-furyl))-5-oxo-1,4,6,7,8-pentahydroquinoline-3-carboxylate]
Aβ1-40
  activity at 5 µM: 44.3%
Aβ1-42
  activity at 5 µM: 55.6%

## CC1=C(C(=O)OCCc2ccccc2)C(c2ccc(N(C)C)cc2)C2=C(CC(C)(C)CC2=O)N1 (stereo not shown) [ST052231, 2-phenylethyl 4-[4-(dimethylamino)phenyl]-2,7,7-trimethyl-5-oxo-1,4,6,7,8-pentahydroquinoline-3-carboxylate]
Aβ1-40
  activity at 5 µM: 38.8%
Aβ1-42
  activity at 5 µM: 63.5%

## CCOC(=O)C1=C(C)NC2=C(C(=O)CCC2)C1c1cc2c(cc1[N+](=O)[O-])OCO2 (stereo not shown) [ST212479, ethyl 2-methyl-4-(6-nitro(2H-benzo[d]1,3-dioxolan-5-yl))-5-oxo-1,4,6,7,8-pentahydroquinoline-3-carboxylate]
Aβ1-40
  activity at 5 µM: 60.2%
Aβ1-42
  activity at 5 µM: 29.3%

## COC(=O)C1=CN(CC2CCCO2)C=C(C(=O)OC)C1c1cccc(Br)c1 (stereo not shown) [ST051569, methyl 4-(3-bromophenyl)-5-(methoxycarbonyl)-1-(oxolan-2-ylmethyl)-1,4-dihydropyridine-3-carboxylate]
Aβ1-40
  Aβ1-40 (% of control): 49.02 % of control
Aβ1-42
  Aβ1-42 (% of control): 72.77 % of control

## CCCCCOC(=O)C1=C(C)NC2=C(C(=O)CC(C)(C)C2)C1c1ccc(C)cc1 (stereo not shown) [ST216602, pentyl 2,7,7-trimethyl-4-(4-methylphenyl)-5-oxo-1,4,6,7,8-pentahydroquinoline-3-carboxylate]
Aβ1-40
  activity at 5 µM: 2.65%
Aβ1-42
  activity at 5 µM: 5.01%

## CC1=C(C(=O)Nc2ccc(Cl)cc2)C(c2ccccc2)c2c(sc(C(=O)Nc3cccc(C)c3)c2N)N1 (stereo not shown) [RI_43]
Aβ1-40
  Aβ1-40 (% of control): 61.2 % of control
Aβ1-42
  Aβ1-42 (% of control): 75.1 % of control

## N#CC1=C(N)n2c(s/c(=C\c3ccccc3Cl)c2=O)=C(C#N)C1c1ccccc1Cl (stereo not shown) [ST006953]
Aβ1-40
  Aβ1-40 (% of control): 47.74 % of control
Aβ1-42
  Aβ1-42 (% of control): 83.98 % of control

## CCCCOC(=O)C1=C(C)NC2=C(C(=O)CCC2)C1c1ccccc1OCCC (stereo not shown) [ST013325, butyl 2-methyl-5-oxo-4-(2-propoxyphenyl)-1,4,6,7,8-pentahydroquinoline-3-carboxylate]
Aβ1-40
  activity at 5 µM: 28.5%
Aβ1-42
  activity at 5 µM: 69.4%

## CC1=C(C(=O)OCc2ccccc2)C(c2ccccc2I)C2=C(CC(C)(C)CC2=O)N1 (stereo not shown) [ST216858, phenylmethyl 4-(2-iodophenyl)-2,7,7-trimethyl-5-oxo-1,4,6,7,8-pentahydroquinoline-3-carboxylate]
Aβ1-40
  activity at 5 µM: 30.1%
Aβ1-42
  activity at 5 µM: 61.5%

## CC1=C(C(=O)OCCOc2ccccc2)C(c2cccc(O)c2)C2=C(CC(c3ccccc3)CC2=O)N1 (stereo not shown) [ST017315, 2-phenoxyethyl 4-(3-hydroxyphenyl)-2-methyl-5-oxo-7-phenyl-1,4,6,7,8-pentahydroquinoline-3-carboxylate]
Aβ1-40
  activity at 5 µM: 43.8%
Aβ1-42
  activity at 5 µM: 53.9%

## COc1ccccc1NC(=O)CSC1=C(C#N)C(c2ccsc2)C(C(=O)Nc2ccccc2)=C(C)N1 (stereo not shown) [RI_57]
Aβ1-40
  Aβ1-40 (% of control): 49.1 % of control
Aβ1-42
  Aβ1-42 (% of control): 37.3 % of control

## COc1cc(/C=c2\sc3n(c2=O)C(N)=C(C#N)C(c2ccc(O)c(OC)c2)C=3C#N)ccc1O (stereo not shown) [ST025032, 5-amino-7-(4-hydroxy-3-methoxyphenyl)-2-[(4-hydroxy-3-methoxyphenyl)methylene]-3-oxo-4,7-dihydro-1,3-thiazolidino[3,2-a]pyridine-6,8-dicarbonitrile]
Aβ1-40
  Aβ1-40 (% of control): 27.77 % of control
Aβ1-42
  Aβ1-42 (% of control): 32.98 % of control

## CC1=C(C(=O)OCCOc2ccccc2)C(c2ccc(C)cc2)C2=C(CC(C)(C)CC2=O)N1 (stereo not shown) [ST015095, 2-phenoxyethyl 2,7,7-trimethyl-4-(4-methylphenyl)-5-oxo-1,4,6,7,8-pentahydroquinoline-3-carboxylate]
Aβ1-40
  activity at 5 µM: 59.7%
Aβ1-42
  activity at 5 µM: 0%

## CC1=C(C(=O)OCCOc2ccccc2)C(c2ccncc2)C2=C(CC(c3ccccc3)CC2=O)N1 (stereo not shown) [ST017084, 2-phenoxyethyl 2-methyl-5-oxo-7-phenyl-4-(4-pyridyl)-1,4,6,7,8-pentahydroquinoline-3-carboxylate]
Aβ1-40
  activity at 5 µM: 54.3%
Aβ1-42
  activity at 5 µM: 84.7%

## CCOC(=O)C1=C(C)NC2=C(C(=O)CCC2)C1c1ccc(OC)cc1OC (stereo not shown) [ST013213, ethyl 4-(2,4-dimethoxyphenyl)-2-methyl-5-oxo-1,4,6,7,8-pentahydroquinoline-3-carboxylate]
Aβ1-40
  activity at 5 µM: 78.2%
Aβ1-42
  activity at 5 µM: 69.3%

## COc1ccc(C2C(C(=O)OC3CCCC3)=C(C)NC3=C2C(=O)CCC3)cc1Br (stereo not shown) [ST013137, cyclopentyl 4-(3-bromo-4-methoxyphenyl)-2-methyl-5-oxo-1,4,6,7,8-pentahydroquinoline-3-carboxylate]
Aβ1-40
  activity at 5 µM: 18.7%
Aβ1-42
  activity at 5 µM: 30%

## CCOC(=O)C1=C(C)NC2=C(C(=O)CCC2)C1c1ccc(OCc2ccccc2Cl)c(OC)c1 (stereo not shown) [ST028591, ethyl 4-{4-[(2-chlorophenyl)methoxy]-3-methoxyphenyl}-2-methyl-5-oxo-1,4,6,7,8-pentahydroquinoline-3-carboxylate]
Aβ1-40
  activity at 5 µM: 98.3%
Aβ1-42
  activity at 5 µM: 69.6%

## COC(=O)C1=C(C)NC2=C(C(=O)CC(c3ccc(OC)cc3)C2)C1c1cccc([N+](=O)[O-])c1 (stereo not shown) [ST013333, methyl 7-(4-methoxyphenyl)-2-methyl-4-(3-nitrophenyl)-5-oxo-1,4,6,7,8-pentahydroquinoline-3-carboxylate]
Aβ1-40
  activity at 5 µM: 48.4%
Aβ1-42
  activity at 5 µM: 51.6%

## COC(=O)C1=C(C)NC2=C(C(=O)CC(c3cccs3)C2)C1c1cc(OC)ccc1OC (stereo not shown) [ST052389, methyl 4-(2,5-dimethoxyphenyl)-2-methyl-5-oxo-7-(2-thienyl)-1,4,6,7,8-pentahydroquinoline-3-carboxylate]
Aβ1-40
  activity at 5 µM: 78.3%
Aβ1-42
  activity at 5 µM: 44.9%

## CC1=C(C(=O)OCCOc2ccccc2)C(c2ccc(Cl)cc2Cl)C2=C(CC(C)(C)CC2=O)N1 (stereo not shown) [ST015067, 2-phenoxyethyl 4-(2,4-dichlorophenyl)-2,7,7-trimethyl-5-oxo-1,4,6,7,8-pentahydroquinoline-3-carboxylate]
Aβ1-40
  activity at 5 µM: 4.89%
Aβ1-42
  activity at 5 µM: 43.9%

## CC1=C(C(=O)OCc2ccccc2)C(c2cccc(Cl)c2Cl)C2=C(CC(C)(C)CC2=O)N1 (stereo not shown) [ST013230, phenylmethyl 4-(2,3-dichlorophenyl)-2,7,7-trimethyl-5-oxo-1,4,6,7,8-pentahydroquinoline-3-carboxylate]
Aβ1-40
  activity at 5 µM: 0%
Aβ1-42
  activity at 5 µM: 69.5%

## COC(=O)C1=C(C)NC2=C(C(=O)CC(c3ccccc3Cl)C2)C1c1ccc([N+](=O)[O-])cc1 (stereo not shown) [ST015176, methyl 7-(2-chlorophenyl)-2-methyl-4-(4-nitrophenyl)-5-oxo-1,4,6,7,8-pentahydroquinoline-3-carboxylate]
Aβ1-40
  activity at 5 µM: 17.4%
Aβ1-42
  activity at 5 µM: 76.4%

## COC(=O)C1=C(C)NC(C)=C(C(=O)OC)C1c1cc(-c2ccc(Cl)cc2Cl)co1 [ST045410, methyl 4-[4-(2,4-dichlorophenyl)(2-furyl)]-5-(methoxycarbonyl)-2,6-dimethyl-1,4-dihydropyridine-3-carboxylate]
Aβ1-40
  Aβ1-40 (% of control): 75.13 % of control
Aβ1-42
  Aβ1-42 (% of control): 69.44 % of control
